Data reported in PMC3038857, “Using Nuclear Receptor Activity to Stratify Hepatocarcinogens” (PLoS ONE, 2011).
Where two headings read alike, the source gives them in different places.

Assays:
PXR (NR1I2) [1] = molecular target: T1, PXR (NR1I2) (Homo sapiens, UniProt O75469); experiment: ATG_PXRE_CIS: Factorial reporter gene assay (HepG2); type: cell-based; set-up: endogenous in cells; host or cells: HepG2
T1 sequence (O75469 1-434): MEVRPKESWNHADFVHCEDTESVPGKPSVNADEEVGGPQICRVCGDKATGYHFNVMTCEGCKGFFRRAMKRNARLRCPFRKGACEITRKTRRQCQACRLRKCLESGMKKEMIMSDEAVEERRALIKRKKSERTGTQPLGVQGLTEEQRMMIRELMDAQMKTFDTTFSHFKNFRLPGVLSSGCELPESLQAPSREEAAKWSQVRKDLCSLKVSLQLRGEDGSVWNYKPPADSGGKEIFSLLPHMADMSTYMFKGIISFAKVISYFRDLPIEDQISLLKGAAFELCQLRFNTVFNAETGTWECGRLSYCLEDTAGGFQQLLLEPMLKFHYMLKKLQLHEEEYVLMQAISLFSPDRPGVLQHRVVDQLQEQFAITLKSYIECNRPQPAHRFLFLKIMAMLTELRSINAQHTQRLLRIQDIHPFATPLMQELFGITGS
Method in brief: (§1)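 Transfected HepG2 line; multiplexed reporter read-out. PXRE = cis library (48 TF sites); ERRg/FXR/PPARg = trans one-hybrid library (25 units). Dose series of 7, MTC downward by 3x.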

CYP1A2 = experiment: CLZD_CYP1A2: Change in expression of CYP1A2 (primary human hepatocytes); type: cell-based; settings: 24 hr
Method in brief: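 Chemicals are tested in human hepatocyte primary cultures over 0.004-40 µM (5 concentrations) for 6, 24 or 48 hr, and concentration- and time-dependent transcript changes are read by quantitative nuclease protection assay.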

[2] = molecular target: T2, AHR (aryl hydrocarbon receptor) (Homo sapiens, UniProt P35869); experiment: ATG_Ahr_CIS: Factorial reporter gene assay (multiplexed transcription reporter, HepG2); type: cell-based
T2 construct: endogenous in cells; host or cells: HepG2
T2 sequence (P35869 11-848): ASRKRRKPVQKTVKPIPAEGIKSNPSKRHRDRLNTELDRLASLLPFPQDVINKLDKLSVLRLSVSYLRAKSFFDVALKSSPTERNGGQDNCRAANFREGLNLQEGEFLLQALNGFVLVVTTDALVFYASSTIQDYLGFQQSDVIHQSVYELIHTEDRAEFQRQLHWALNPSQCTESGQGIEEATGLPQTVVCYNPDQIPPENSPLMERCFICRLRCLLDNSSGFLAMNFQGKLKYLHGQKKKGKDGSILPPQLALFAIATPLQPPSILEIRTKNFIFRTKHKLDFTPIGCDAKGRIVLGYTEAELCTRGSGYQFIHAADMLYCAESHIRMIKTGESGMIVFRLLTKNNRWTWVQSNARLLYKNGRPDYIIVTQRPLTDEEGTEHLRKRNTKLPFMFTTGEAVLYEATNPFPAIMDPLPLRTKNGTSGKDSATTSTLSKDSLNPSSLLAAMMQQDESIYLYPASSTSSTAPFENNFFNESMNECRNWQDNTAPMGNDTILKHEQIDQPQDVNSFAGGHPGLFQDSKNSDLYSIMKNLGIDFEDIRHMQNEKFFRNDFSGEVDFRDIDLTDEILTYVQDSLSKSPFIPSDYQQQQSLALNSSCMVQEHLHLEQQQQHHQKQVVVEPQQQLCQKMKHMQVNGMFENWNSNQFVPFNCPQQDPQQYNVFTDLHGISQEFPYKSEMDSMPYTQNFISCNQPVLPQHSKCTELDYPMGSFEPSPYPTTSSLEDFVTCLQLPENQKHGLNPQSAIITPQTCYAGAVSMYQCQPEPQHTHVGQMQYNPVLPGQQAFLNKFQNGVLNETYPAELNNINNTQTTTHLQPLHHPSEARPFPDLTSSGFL
Protocol: A multiple reporter transcription unit (MRTU) library consisting of 48 transcription factor binding sites was transfected into the HepG2 human liver hepatoma cell line. In addition to the cis-acting reporter genes (CIS), a modification of the approach was used to generate a trans-system (TRANS) with a mammalian one-hybrid assay consisting of an additional 25 MRTU library reporting the activity of nuclear receptor super-family members. […] These assays were performed by Attagene Inc. (Morrisville NC) under contract to EPA.
In addition to the cis-acting reporter genes (CIS), a modification of the approach was used to generate a trans-system (TRANS) with a mammalian one-hybrid assay consisting of an additional 25 MRTU library reporting the activity of nuclear receptor super-family members. […] Chemicals were then tested in the CIS and TRANS assays at seven concentrations starting at the MTC and followed by three-fold serial dilutions. These assays were performed by Attagene Inc. (Morrisville NC) under contract to EPA. Detailed description of the methods, data and analysis methods for this dataset will be presented in a separate publication.

Mouse Liver [3] = settings: chronic study, mouse liver; ref ToxRefDB; cited from earlier work
Rat Liver [4] = settings: chronic study, ref ToxRefDB, cited from earlier work
PXR (NR1I2) [5] = molecular target: T1, PXR (NR1I2); experiment: ATG_PXR_TRANS: Factorial reporter gene assay (HepG2); type: cell-based; set-up: endogenous in cells; host or cells: HepG2; settings: HepG2 reporter
Method in brief: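 Seven concentrations per chemical, three-fold dilutions down from the MTC, were tested in HepG2 hepatoma cells. Those cells carried a multiple reporter transcription unit library, read either as cis transcription-factor-site reporters or as a trans mammalian one-hybrid panel for nuclear receptors.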

[6] = molecular target: T3, PPARG (peroxisome proliferator-activated receptor gamma) (Homo sapiens, UniProt P37231); experiment: ATG_PPARg_TRANS: Factorial reporter gene assay (HepG2); type: cell-based
T3 construct: expressed in transfected cells; host or cells: HepG2
T3 sequence (P37231 1-505): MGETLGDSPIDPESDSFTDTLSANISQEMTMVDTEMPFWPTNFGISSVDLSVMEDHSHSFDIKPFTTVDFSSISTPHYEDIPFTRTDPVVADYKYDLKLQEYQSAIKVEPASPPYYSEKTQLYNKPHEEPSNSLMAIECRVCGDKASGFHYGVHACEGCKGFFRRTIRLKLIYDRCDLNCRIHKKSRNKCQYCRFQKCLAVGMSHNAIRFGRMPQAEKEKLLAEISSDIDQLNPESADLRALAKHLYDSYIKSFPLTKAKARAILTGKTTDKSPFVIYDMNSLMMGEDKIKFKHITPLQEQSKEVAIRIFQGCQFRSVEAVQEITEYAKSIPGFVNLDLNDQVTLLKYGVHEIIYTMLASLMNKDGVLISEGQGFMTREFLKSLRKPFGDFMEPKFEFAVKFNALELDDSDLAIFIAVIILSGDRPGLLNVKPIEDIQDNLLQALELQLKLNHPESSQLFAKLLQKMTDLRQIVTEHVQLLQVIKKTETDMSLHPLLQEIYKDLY
Method in brief: as §1

Rat Liver [7] = settings: chronic study, ref ToxRefDB, cited from earlier work; remark: listed apart in the source
CYP2B6 = experiment: CLZD_CYP2B6: Change in expression of CYP2B6 (primary human hepatocytes); type: cell-based; settings: 24 hr
Method in brief: (§2)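 Primary human hepatocyte cultures were exposed to test chemicals at 5 concentrations (0.004-40 µM) for 6, 24 or 48 hr.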

CYP3A4 = experiment: CLZD_CYP3A4: Change in expression of CYP3A4 (primary human hepatocytes); type: cell-based; settings: 24 hr
Method in brief: as §2

PXR Human (NR1I2) = molecular target: T4, PXR Human (NR1I2) (Homo sapiens, UniProt O75469); experiment: NCGC_PXR_Agonist_human: GAL4 BLAM Reporter gene assay: PXR Human; type: cell-based; settings: agonist mode
T4 sequence (O75469 146-434 limits assumed): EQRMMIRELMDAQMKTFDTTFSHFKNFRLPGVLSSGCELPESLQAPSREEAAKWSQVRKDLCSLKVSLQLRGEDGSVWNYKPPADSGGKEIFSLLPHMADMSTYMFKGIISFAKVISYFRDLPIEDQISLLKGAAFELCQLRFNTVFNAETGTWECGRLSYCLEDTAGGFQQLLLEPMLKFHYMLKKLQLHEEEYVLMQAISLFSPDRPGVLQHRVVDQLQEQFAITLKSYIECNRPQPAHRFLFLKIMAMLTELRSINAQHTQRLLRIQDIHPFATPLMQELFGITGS
Protocol: These assays measure binding constants and enzyme inhibition values for nuclear receptors. The targets include [drawing 67] , [drawing 68] , [drawing 69] , [drawing 70] , [drawing 71] , [drawing 72] , [drawing 73] , [drawing 74] , [drawing 75] and [drawing 76] . Each of the nuclear receptor targets was measured in agonist mode. Assays were run at the NIH Chemical Genomics Center (Rockville, MD).
Cell-based HTS Assays: These assays measuring binding constants and enzyme inhibition values for nuclear receptors. The targets include AR, ER, FXR, LXR, PPARα, PPARδ, PPARγ, RXRα, RXRβ and PXR. Each of the nuclear receptor targets was measured in both agonist and antagonist mode, but the antagonist data is still undergoing analysis due to possible interference between cytotoxicity and assay activity, so antagonist mode data were not used in the present analysis. Assays were run at the NIH Chemical Genomics Center (Rockville, MD) as part of the Tox21 collaboration. […] The R^2 was required to be ≥0.5. Values where only the highest concentration exceeded 50% activity were excluded to eliminate weak or false positives. Detailed description of the methods, data and analysis methods for this dataset will be presented in a separate publication.

Rat Liver [8] = settings: chronic study, ref ToxRefDB, cited from earlier work; remark: listed apart in the source
Mouse Liver [9] = settings: chronic study, mouse liver; ref ToxRefDB; cited from earlier work; remark: listed apart in the source
Mouse Liver [10] = settings: chronic study, mouse liver; ref ToxRefDB; cited from earlier work; remark: listed apart in the source
PXR (NR1I2) [11] = molecular target: T1, PXR (NR1I2); experiment: NVS_NR_hPXR: Human PXR Fluormone PXR (SXR) green (cell-free HTS); type: binding
Source text: These are a collection of biochemical assays measuring binding constants and enzyme inhibition values. Chemicals were initially screened at a single concentration in duplicate wells at a concentration of 10 [drawing 63] M for cytochrome P-450 assays and 25 [drawing 64] M for all others. […] These assays were run by Caliper Life Sciences (Hanover, MD) under contract to EPA. Short assay descriptions are available at: http://www.caliperls.com/products/contract-research/in-vitro/.
Cell-free HTS Assays: A collection of biochemical assays measuring binding constants and enzyme inhibition values. […] These assays were run by Caliper Life Sciences (Hanover, MD) under contract to EPA. Short assay descriptions are available at http://www.caliperls.com/products/contract-research/in-vitro/. Values for all endpoints were imported into GeneData Screener (Basel, Switzerland) and normalised to solvent controls from the same plate as the tested compounds and expressed as percent of neutral control. Concentration-response curves were fit in GeneData Screener (Basel, Switzerland) Condeseo module using the Hill equation and AC50 values were determined. […] Detailed description of the methods, data and analysis methods for this dataset are described in a separate publication.

`O=c1n(Cl)c(=O)n(Cl)c(=O)n1Cl` [r288] showed an ATG_PXRE_CIS (PXR (NR1I2) [1]; HepG2 reporter) of 4.337, a CLZD_CYP1A2_24 (CYP1A2) of 5.117 and an ATG_Ahr_CIS ([2]; HepG2 reporter) of 4.509.

For `CCOC(=O)COc1cc(-c2nn(C)c(OC(F)F)c2Cl)c(F)cc1Cl` [r271], the CHR_Mouse_Liver_3_NeoplasticLesion (Mouse Liver [3]) is listed as 6, the CHR_Rat_Liver_2_PreneoplasticLesion (Rat Liver [4]; rat liver) is listed as 6 and the ATG_PXR_TRANS (PXR (NR1I2) [5]) is listed as 4.538. The ATG_PPARg_TRANS ([6]; HepG2 reporter) was 4.328, the CHR_Rat_Liver_3_NeoplasticLesion (Rat Liver [7]; rat liver) was 0 and the ATG_PXRE_CIS (PXR (NR1I2) [1]; HepG2 reporter) was 4.26. For the same compound, the CLZD_CYP2B6_24 (CYP2B6) was 4.918, the CLZD_CYP3A4_24 (CYP3A4) was 5.138 and the NCGC_PXR_Agonist_human (PXR Human (NR1I2)) was 4.477. For the same compound, the CHR_Rat_Liver_1_AnyLesion (Rat Liver [8]; rat liver) was 6, the CHR_Mouse_Liver_1_AnyLesion (Mouse Liver [9]) was 6 and the CHR_Mouse_Liver_2_PreneoplasticLesion (Mouse Liver [10]) was 6.

Work on `CCCCOC(=O)c1ccccc1C(=O)O` [row 215] yielded an NVS_NR_hPXR (PXR (NR1I2) [11]) of 4.801 and an ATG_Ahr_CIS ([2]; HepG2) of 4.119.

For `Nc1c(Cl)c(Cl)nc(C(=O)O)c1Cl` [r245], the CHR_Rat_Liver_2_PreneoplasticLesion (Rat Liver [4]; rat) is given as 0, the CHR_Rat_Liver_3_NeoplasticLesion (Rat Liver [7]; rat) is given as 0 and the ATG_PXRE_CIS (PXR (NR1I2) [1]; HepG2) is given as 4.26. The CLZD_CYP1A2_24 (CYP1A2) was 4.952, the CHR_Rat_Liver_1_AnyLesion (Rat Liver [8]; rat) was 6 and the ATG_Ahr_CIS ([2]; HepG2) was 4.523.

For `CNC(=S)[S-].O.O.O.[Na+]` [row 197], the ATG_PPARg_TRANS ([6]; HepG2) was 4.569, the ATG_PXRE_CIS (PXR (NR1I2) [1]; HepG2) was 4.167 and the NCGC_PXR_Agonist_human (PXR Human (NR1I2)) was 4.503. For the same compound, the ATG_Ahr_CIS ([2]; HepG2) was 4.444.
